# Measurements: patent US7713994B2 (Wyeth LLC, priority 2005, dated 2010)
# Where two headings read alike, the source gives them in different places.
# Tests used:
# cyclin E/CDK2 enzyme = molecular target: T1, cyclin E/CDK2 enzyme (Homo sapiens, UniProt P24941); assay: CDK2 ELISA kinase assay (phospho-Rb ser 795 detection); assay type: biochemical; settings: read-out: CDK2 IC50
# T1 construct: made in house; host or cells: Sf9 insect cells, recombinant baculovirus
# Method in brief: (§1)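 Partially purified Sf9-expressed cyclin D1/CDK4, cyclin E/CDK2 or cyclin B/CDK1 phosphorylated plate-bound GST-Rb C-terminal fragment with 200 μM ATP at 30° C for 1 h.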
# LoVo = assay: Cytotoxicity assay (SRB), LoVo; assay type: cell-based; settings: LoVo cells, SRB, read-out: In Vitro Cellular Activity IC50 LOVO
# Method in brief: (§2)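 Percentage survival is derived from SRB absorbance (540 nm) versus untreated cells. Exposures were 3 days, except 6 days for BT474, at 37 °C and 7% CO2.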
# cyclin B/CDK1 enzyme = molecular target: T2, cyclin B/CDK1 enzyme (Homo sapiens, UniProt P06493); assay: CDK1 ELISA kinase assay (phospho-Rb ser 795 detection); assay type: biochemical; settings: read-out: CDK1 IC50
# T2 construct: purchased New England BioLabs; host or cells: Sf9 insect cells, recombinant baculovirus
# Method in brief: as §1
# HCT-116 = assay: Cytotoxicity assay (SRB), HCT-116; assay type: cell-based; settings: HCT116 cells, SRB, read-out: In Vitro Cellular Activity IC50 HCT116
# Method in brief: as §2
# MCF-7 = assay: Cytotoxicity assay (SRB), MCF-7; assay type: cell-based; settings: MCF-7 cells, SRB, read-out: In Vitro Cellular Activity IC50 MCF-7
# Method in brief: as §2
# BT474 = assay: Cytotoxicity assay (SRB), BT474; assay type: cell-based
# Method in brief: as §2
# cyclin D1/cdk 4 enzyme = molecular target: T3, cyclin D1/cdk 4 enzyme (Homo sapiens, UniProt P11802); assay: CDK4 ELISA kinase assay (phospho-Rb ser 795 detection); assay type: biochemical
# T3 construct: made in house; host or cells: Sf9 insect cells, recombinant baculovirus
# Method in brief: as §1
# [1] = Homo sapiens, LoVo, 72 h, 3 days
# [2] = Homo sapiens, HCT-116, 72 h, 3 days
# [3] = Homo sapiens, MCF7, 72 h, 3 days
# [4] = Homo sapiens, BT-474, 144 h, BT474 cells, 6 days, SRB; read-out: In Vitro Cellular Activity IC50 BT474
# [5] = In Vitro Enzyme Assays, 200 μM ATP, read-out: CDK4 IC50
# [6] = Homo sapiens, LoVo, 72 h, three days
# [7] = Homo sapiens, HCT-116, 72 h, three days
# [8] = Homo sapiens, MCF7, 72 h, three days
# [9] = Homo sapiens, BT-474, 144 h, BT474 cells, SRB, 6 days; read-out: In Vitro Cellular Activity IC50 BT474
# T2 sequence (P06493 whole entry): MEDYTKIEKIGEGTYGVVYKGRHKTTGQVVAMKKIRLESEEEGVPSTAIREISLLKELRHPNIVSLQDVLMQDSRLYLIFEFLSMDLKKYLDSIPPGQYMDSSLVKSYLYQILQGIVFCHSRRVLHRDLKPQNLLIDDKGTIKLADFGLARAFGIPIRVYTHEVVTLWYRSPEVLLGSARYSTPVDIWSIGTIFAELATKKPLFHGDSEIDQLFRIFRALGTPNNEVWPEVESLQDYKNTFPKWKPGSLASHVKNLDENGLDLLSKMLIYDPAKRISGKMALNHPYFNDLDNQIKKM
# T2 sequence (P14635 whole entry partner): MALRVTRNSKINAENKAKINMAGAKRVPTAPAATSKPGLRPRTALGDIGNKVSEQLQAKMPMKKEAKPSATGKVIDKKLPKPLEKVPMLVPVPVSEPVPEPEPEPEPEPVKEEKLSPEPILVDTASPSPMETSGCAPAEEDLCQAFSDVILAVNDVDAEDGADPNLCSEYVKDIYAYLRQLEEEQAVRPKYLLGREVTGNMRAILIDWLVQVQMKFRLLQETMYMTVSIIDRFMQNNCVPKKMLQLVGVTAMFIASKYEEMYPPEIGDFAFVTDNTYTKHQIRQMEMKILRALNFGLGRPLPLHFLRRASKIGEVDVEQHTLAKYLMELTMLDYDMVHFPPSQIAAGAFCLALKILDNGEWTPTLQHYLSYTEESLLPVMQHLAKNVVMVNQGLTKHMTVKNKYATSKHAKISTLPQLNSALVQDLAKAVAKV
# T3 sequence (P11802 whole entry, species assumed): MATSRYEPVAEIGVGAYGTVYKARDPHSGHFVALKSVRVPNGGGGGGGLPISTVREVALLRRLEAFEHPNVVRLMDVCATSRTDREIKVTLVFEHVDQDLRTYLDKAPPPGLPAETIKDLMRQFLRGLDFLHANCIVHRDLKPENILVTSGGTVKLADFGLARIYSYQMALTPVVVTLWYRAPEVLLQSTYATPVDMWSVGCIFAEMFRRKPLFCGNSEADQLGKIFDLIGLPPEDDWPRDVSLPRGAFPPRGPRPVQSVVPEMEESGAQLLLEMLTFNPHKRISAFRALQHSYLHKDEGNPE
# T3 sequence (P24385 whole entry partner, species assumed): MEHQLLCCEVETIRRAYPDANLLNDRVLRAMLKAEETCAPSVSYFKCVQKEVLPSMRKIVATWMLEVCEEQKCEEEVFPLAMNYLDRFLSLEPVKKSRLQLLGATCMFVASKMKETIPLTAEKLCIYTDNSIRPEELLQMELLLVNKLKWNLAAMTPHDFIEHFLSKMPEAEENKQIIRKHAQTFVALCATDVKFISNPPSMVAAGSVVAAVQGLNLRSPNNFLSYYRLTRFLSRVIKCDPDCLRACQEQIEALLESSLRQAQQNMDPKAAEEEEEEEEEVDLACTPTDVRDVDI
IC50 (cyclin E/CDK2 enzyme; In Vitro Enzyme Assays) [µM],IC50 (cyclin B/CDK1 enzyme; In Vitro Enzyme Assays) [µM],IC50 (cyclin D1/cdk 4 enzyme; [5]) [µM],IC50 (cyclin E/CDK2 enzyme; In Vitro Enzyme Assay) [µM],IC50 (cyclin B/CDK1 enzyme; In Vitro Enzyme Assay) [µM],"IC50 (cyclin D1/cdk 4 enzyme; In Vitro Enzyme Assay, read-out: CDK4 IC50) [µM]",SMILES,IC50 (LoVo; [1]) [µM],IC50 (HCT-116; [2]) [µM],IC50 (MCF-7; [3]) [µM],IC50 (BT474; [4]) [µM],IC50 (LoVo; [6]) [µM],IC50 (HCT-116; [7]) [µM],IC50 (MCF-7; [8]) [µM],IC50 (BT474; [9]) [µM],"IC50 (cyclin D1/cdk 4 enzyme; CDK4 IC50, In Vitro Enzyme Assays, 200 μM ATP) [µM]",IC50 (LoVo; three days) [µM],IC50 (HCT-116; three days) [µM],IC50 (MCF-7; three days) [µM],"IC50 (BT474; BT474 cells, SRB, 6 days; read-out: In Vitro Cellular Activity IC50 BT474) [µM]"
31,> 50,10,,,,"O=C1NC(=O)c2ccc(I)cc2/C1=C/Nc1ccc(N2CCC[C@H]2CO)c(F)c1 (stereo in doubt) [Example 426, 4-{[3-Fluoro-4-(2-hydroxymethyl-pyrrolidin-1-yl)-phenylamino]-methylene}-6-iodo-4H-isoquinoline-1,3-dione]",2.2,1.6,2.8,4.5,,,,,,,,,
> 50,> 50,2.1,,,,"O=C1CC[C@@H](CN/C=C2\C(=O)NC(=O)c3ccc(I)cc32)N1 (stereo in doubt) [Example 427, 6-Iodo-4-{[(5-oxo-pyrrolidin-2-ylmethyl)-amino]-methylene}-4H-isoquinoline-1,3-dione]",22.7,17.8,22.4,23.2,,,,,,,,,
36.3,> 50,0.75,,,,"O=C1NC(=O)c2ccc(Br)cc2/C1=C/Nc1ccc(CN2CCC[C@H]2CO)cc1 (stereo in doubt) [Example 437, 6-Bromo-4-{[4-(2-hydroxymethyl-pyrrolidin-1-ylmethyl)-phenylamino]-methylene}-4H-isoquinoline-1,3-dione]",3.6,3.7,3.1,2.9,,,,,,,,,
> 50,> 50,0.04,,,,"O=C1NC(=O)c2ccc(-c3cccs3)cc2/C1=C/Nc1ccc(CN2CCC[C@H]2CO)cc1 (stereo in doubt) [Example 438, 4-{[4-(2-Hydroxymethyl-pyrrolidin-1-ylmethyl)-phenylamino]-methylene}-6-thiophen-2-yl-4H-isoquinoline-1,3-dione]",1.6,1.6,1.8,2.2,,,,,,,,,
,,,> 50,> 50,2.6,"CN1CCN(CCN(C)c2ccc(NC=C3C(=O)NC(=O)c4ccc(Br)cc43)cc2)CC1 (stereo in doubt) [Example 870, (4Z)-6-Bromo-4-{[(4-{methyl[2-(4-methylpiperazin-1-yl)ethyl]amino}phenyl)amino]methylene}isoquinoline-1,3(2H,4H)-dione]",10.5,3,9.2,10.2,,,,,,,,,
> 50,> 50,0.033,,,,O=C1NC(=O)c2ccc(Br)cc2/C1=C/NCc1cccc(O)c1 [Example 46],,,,,23,23,> 50,> 50,,,,,
> 50,> 50,0.19,,,,O=C1NC(=O)c2ccc(-n3cccc3)cc2/C1=C/Nc1ccc(CN2CCCC2)cc1 [Example 72],,,,,3.4,3.4,2.6,4.1,,,,,
2.2,42.6,0.026,,,,O=C1NC(=O)c2ccc(Br)cc2/C1=C/NCc1cc(O)c(O)c(O)c1 [Example 79],,,,,49.5,> 50,> 50,37.7,,,,,
18.3,23.3,0.002,,,,"COc1ccc(CN/C=C2\C(=O)NC(=O)c3ccc(-c4ccsc4)cc32)cc1O [Example 88, (4Z)-4-{[(3-Hydroxy-4-methoxybenzyl)amino]methylene}-6-thien-3-ylisoquinoline-1,3(2H,4H)-dione]",,,,,2.4,3.4,9.1,6,,,,,
> 50,> 50,0.05,,,,"O=C1NC(=O)c2ccc(-c3ccsc3)cc2/C1=C/Nc1ccc(CN2CCCCC2)cc1 [Example 104, (4Z)-4-({[4-(Piperidin-1-ylmethyl)phenyl]amino}methylene)-6-thien-3-ylisoquinoline-1,3(2H,4H)-dione]",,,,,1.3,1,3.4,3,,,,,
> 50,> 50,0.12,,,,"CN1CCN(c2ccc(N/C=C3\C(=O)NC(=O)c4ccc(-c5ccsc5)cc43)cc2)CC1 [Example 108, (4Z)-4-({[4-(4-Methylpiperazin-1-yl)phenyl]amino}methylene)-6-thien-3-ylisoquinoline-1,3(2H,4H)-dione]",,,,,,,,,,2.2,1.5,2.5,2.6
> 50,> 50,7.4,,,,"COc1ccc(-c2ccc3c(c2)/C(=C/Nc2ccc(N4CCN(C)CC4)cc2)C(=O)NC3=O)cc1 [Example 114, (4Z)-6-(4-methoxyphenyl)-4-({[4-(4-methylpiperazin-1-yl)phenyl]amino}methylene)-isoquinoline-1,3(2H,4H)-dione]",,,,,6.5,1.9,6.3,5,,,,,
7.7,8.2,0.13,,,,"CN1CCN(c2ccc(N/C=C3\C(=O)NC(=O)c4ccc(-c5ccc(C=O)cc5)cc43)cc2)CC1 [Example 115, 4-[(4Z)-4-({[4-(4-Methylpiperazin-1-yl)phenyl]amino}methylene)-1,3-dioxo-1,2,3,4-tetra-hydroisoquinolin-6-yl]benzaldehyde]",,,,,6.5,1.6,4.7,6.7,,,,,
> 50,> 50,27.8,,,,"COc1cccc(-c2ccc3c(c2)/C(=C/Nc2ccc(CN4CCCCC4)cc2)C(=O)NC3=O)c1 [Example 117, (4Z)-6-(3-Methoxyphenyl)-4-({[4-(piperidin-1-ylmethyl)phenyl]amino}methylene)-isoquinoline-1,3(2H,4H)-dione]",,,,,2.4,1.4,2.7,3,,,,,
34.5,42.5,0.35,,,,"CCCOc1ccc(CN/C=C2\C(=O)NC(=O)c3ccc(Br)cc32)cc1O [Example 130, (4Z)-6-Bromo-4-{[(3-hydroxy-4-propoxybenzyl)amino]methylene}isoquinoline-1,3(2H,4H)-dione]",,,,,0.94,0.73,4,0.65,,,,,
1.1,13.6,0.06,,,,"O=C1NC(=O)c2ccc(Br)cc2/C1=C/NCc1ccc(OCCN2CCCC2)c(O)c1 [Example 143, (4Z)-6-Bromo-4-({[3-hydroxy-4-(2-pyrrolidin-1-ylethoxy)benzyl]amino}methylene) isoquinoline-1,3(2H,4H)-dione]",,,,,8.8,3,4.3,5.7,,,,,

SMILES,IC50 (cyclin E/CDK2 enzyme; In Vitro Enzyme Assays) [µM],IC50 (cyclin B/CDK1 enzyme; In Vitro Enzyme Assays) [µM],IC50 (cyclin D1/cdk 4 enzyme; [5]) [µM],IC50 (cyclin E/CDK2 enzyme; In Vitro Enzyme Assay) [µM],IC50 (cyclin B/CDK1 enzyme; In Vitro Enzyme Assay) [µM],"IC50 (cyclin D1/cdk 4 enzyme; In Vitro Enzyme Assay, read-out: CDK4 IC50) [µM]",IC50 (LoVo; [1]) [µM],IC50 (HCT-116; [2]) [µM],IC50 (MCF-7; [3]) [µM],IC50 (BT474; [4]) [µM],IC50 (LoVo; [6]) [µM],IC50 (HCT-116; [7]) [µM],IC50 (MCF-7; [8]) [µM],IC50 (BT474; [9]) [µM],"IC50 (cyclin D1/cdk 4 enzyme; CDK4 IC50, In Vitro Enzyme Assays, 200 μM ATP) [µM]",IC50 (LoVo; three days) [µM],IC50 (HCT-116; three days) [µM],IC50 (MCF-7; three days) [µM],"IC50 (BT474; BT474 cells, SRB, 6 days; read-out: In Vitro Cellular Activity IC50 BT474) [µM]"
"COc1ccc(CN/C=C2\C(=O)NC(=O)c3ccccc32)cc1O [Example 98, (4Z)-4-{[(3-Hydroxy-4-methoxybenzyl)amino]methylene}isoquinoline-1,3(2H,4H)-dione]",7.1,> 50,,,,,,,,,19.3,17.9,24.1,16.8,0.21,,,,
